# Test results published in patent US10278931B2, “Composition for treatment of inflammatory bowel disease and atopic dermatitis” (INNOPHARMASCREEN INC., priority 2015, dated 2019).
# Columns and labels:
# HMC-1 cells = assay: Cytotoxicity (MTT-assay) in HMC-1 cells; assay type: cell-based, human; conditions: 10 μM
# Method: (§1) (1) Cell culture: A human mast cell line (HMC-1) was cultured in an IMDM supplemented with 10% FBS at 37° C. and 5% CO2. Candidate materials were dissolved in DMSO, and then filtered using a 0.22 μm filter. The resulting candidate materials were diluted with DMSO and the HMC-1 cells were treated therewith.
# […] After culturing, the medium was replaced by a fresh medium, 5 mg/ml of an MTT solution was then added thereto, and the mast cells were incubated at 37° C. for 4 hours. 250 DMSO was added to the mast cells, MTT formazan was extracted therefrom, and absorbance of each well was measured at 540 nm using an ELISA reader.
# [1] = test system: TSLP secretion from human mast cells (HMC-1 cells); assay: TSLP secretion ELISA in PMACI-stimulated mast cells; assay type: cell-based; conditions: PMACI-stimulated HMC-1 cells, ELISA
# Method: as §1
# (3) Enzyme-linked immunosorbent assay (ELISA): Mast cells (3×10^6 cells/ml) were stabilized for 1 hour, and then treated with 0.1 μM, 1 μM, and 10 μM of candidate materials, followed by treatment with PMACI for 8 hours. The mast cells were centrifuged to obtain supernatants. To measure the amount of TSLP secreted from the cells, ELISA was used. The ELISA was performed in 96-well plates coated with 1 μg/well of TSLP capture Ab. The coated plates were washed twice with PBS. The cells were treated with PBS containing 10% FBS for 2 hours. Thereafter, the cells were washed with PBS containing 0.05% Tween-20 (Sigma), and recombinant TSLP was used to draw a standard curve. Subsequently, the plates were exposed to a biotinylated-TSLP antibody, Avidin peroxidase, an ARTS substrate containing 30% H2O2, and then measured at 405 nm.
# HaCat cells = assay: Cytotoxicity (MTT-assay) in HaCat cells; assay type: cell-based, human
# Method: as §1, with “skin” for “mast”, “(HaCat cells)” for “(HMC-1)”, “RPMI containing” for “an IMDM supplemented with”, “HaCat” for “HMC-1”
# (2) Cytotoxicity (MTT-assay): After stabilizing HaCat cells (3×10^5 cells/ml) for 1 hour, they were treated with candidate materials variously beginning from a concentration of 10 μM, followed by treatment with Poly (I:C) for 8 hours. Then, the medium was replaced by a fresh medium, 5 mg/ml of an MTT solution was then added thereto, and the mast cells were incubated at 37° C. for 4 hours. 250 DMSO was added to the HaCat cells, MTT formazan was extracted therefrom, and absorbance of each well was measured at 540 nm using an ELISA reader.
# caspase-1 = biological target: T1, caspase-1 (Homo sapiens, UniProt P29466); assay: Caspase-1 assay using HMC-1 cell extracts; assay type: cell-based
# T1 construct: a caspase-1 assay was conducted using cell extracts; endogenous in cells; host or cells: HMC-1 (human mast cells)
# T1 sequence (P29466 120-297 limits assumed): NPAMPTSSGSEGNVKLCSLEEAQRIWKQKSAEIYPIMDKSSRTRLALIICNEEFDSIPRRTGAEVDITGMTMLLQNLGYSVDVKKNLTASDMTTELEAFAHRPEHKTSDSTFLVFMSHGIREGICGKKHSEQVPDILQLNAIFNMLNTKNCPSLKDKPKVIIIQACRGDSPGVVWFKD
# T1 sequence (P29466 317-404 limits assumed): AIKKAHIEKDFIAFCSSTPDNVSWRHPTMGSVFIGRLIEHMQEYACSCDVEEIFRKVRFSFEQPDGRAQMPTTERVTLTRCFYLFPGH
# DSS-induced animal model = assay: DSS-induced inflammatory bowel disease (enteritis) model; assay type: in vivo, C57BL/6 mice
# Method: Six-week-old female SPF (Specific pathogen-free) C57BL/6 mice were purchased from DuPont Biotech. The mice were allowed to freely ingest a feed and water after an acclimation period of 1 week in an animal room of Hoseo University Safety Evaluation Center maintained at temperature of 21±3° C., humidity of 50±20%, and light/darkness cycle of 12 h/12 h. All procedures in the present animal experiment were conducted after approved by the Animal Experimental Ethics Committee of Hoseo University (HTRC-15-19, and HTRC-16-22(2)).
# Dextran sodium sulfate (cat no 160110 by Mpbio. corn) as a colitis inducer was diluted to 3% concentration in drinking water and orally administered to mice to induce enteritis. The mice were divided into 6 groups and DW was administered to the animals of a control, and 1.0 mg/kg and 10 mg/kg of the test material were orally administered to the animals of the experimental groups once a day for […]. Sulfasalazine (100 mg/kg) dissolved in crude olive oil was orally administered once a day to the animals of a positive control. In acute cases, disease progression levels were examined after 5 days of administration. In chronic cases, disease progression levels were examined 15 days and 30 days after the 5 days of administration (reference: Toxicology Reports 2 (2015) 10391045-Caryophyllene attenuates dextran sulfate sodium-induced colitis in mice via modulation of gene expression associated mainly with colon inflammation).
# Body weights were measured once for 5 days or more during the test period. The measured weights were quantified as 0 point if there was no difference compared with the normal control, 1 point for weight loss rate of 15%, 2 points for 510%, 3 points for 1015%, and 4 points for >15%. Feces observation was performed to examine the incidence of diarrhea, and the results thereof were quantified as scores (0, normal stool; 1, mildly soft stool; 2, very soft stool; 3, very soft stool (no regular shape); 4, watery stool).
# Rectal tissues and blood were collected from 5 individuals for each of the autopsy times. Yuhan ketamine 50® (Yuhan Corporation, Korean) and Rompun (Bayer, USA) were mixed in a ratio of 3:1, and then used to anesthetize animals via muscular injection. Each anesthetized animal was subjected to laparotomy to collect blood from the abdominal artery, and after blood collection, the abdominal artery was cut and subjected to venesection and death to collect rectal tissue. The length and weight of the collected tissue were measured to calculate weight per 1 cm of the tissue. Some of the collected tissues were used in biopsy, and some thereof were frozen in liquid nitrogen and stored at −70° C. before analysis. […]
# [2] = biological target: T2, human recombinant caspase-1 (Homo sapiens, UniProt P29466); assay: Recombinant caspase-1 activity assay (kit); assay type: biochemical; conditions: caspase-1 assay kit
# T2 sequence (P29466 120-404): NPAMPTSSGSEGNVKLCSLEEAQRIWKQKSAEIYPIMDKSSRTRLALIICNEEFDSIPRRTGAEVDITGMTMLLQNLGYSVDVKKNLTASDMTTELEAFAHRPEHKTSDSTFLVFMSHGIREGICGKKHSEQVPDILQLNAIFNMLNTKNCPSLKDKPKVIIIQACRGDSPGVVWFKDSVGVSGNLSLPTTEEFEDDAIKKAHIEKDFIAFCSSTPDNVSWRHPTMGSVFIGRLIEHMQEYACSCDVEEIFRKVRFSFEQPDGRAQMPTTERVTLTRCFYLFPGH
# Method: (4) Caspase-1 assay: Recombinant caspase-1 and a drug were allowed to react, and then activity measurement was performed using a caspase-1 assay kit (R&D Systems Inc., Minneapolis, Minn., USA).
# Recombinant caspase-1 and a drug were allowed to react, and then activity was measured using a caspase-1 assay kit (R&D Systems Inc., Minneapolis, Minn., USA).
# [3] = test system: balb/c mice with DNCB-induced atopic dermatitis; assay: DNCB-induced atopic dermatitis model; assay type: in vivo; conditions: 0.1% dexamethasone
# Description: (5) Reverse transcription-polymerase chain reaction (RT-PCR) quantitative real time PCR: Total RNA was isolated from cells and tissues, and cDNA was synthesized using a reverse transcriptase and was then reacted with cytokine primers to be analyzed, followed by PCR and real-time PCR. The RT-PCR products were subjected to electrophoresis using 1.5% agarose gel for analysis.
# A. Experimental animal: 5-week-old male BALB/c mice obtained from. Daehan Biolink (Eumseong, Chungbuk) were adapted for 2 weeks in a clean animal breeding room (small animal room #2-302) at Hoseo University Safety Evaluation Center, set under environmental conditions: temperature of 22±3° C.; relative humidity of 50±20%; ventilation frequency of 10 to 15 times/hour, illumination for 12 hours; and illuminance of 150 Lux to 300 Lux, and then used in an experiment.
# 4 experimental animals were accommodated in each of polycarbonate cages (270×500×200 mm, KYERYONG SCIENCE). Feed (5053-Picolab Rodent 20, PMI Nutrition International) and drinking water (ultraviolet sterilized filtered water) were allowed to ingest freely. All procedures of the experiment were conducted after approved by the Ethics Committee of the Hoseo University Safety Evaluation Center (HTRC-15-19).
# B. Dermatitis induction: Hairs on the back of each mouse were removed and maintained for 24 hours, and then 150 μl of a 1% 2,4-dinitrochlorobenzene(DNCB) solution (acetone: olive oil=3:1) was applied on the hair-removed site once a week for 3 weeks. After week 3, the DNCB solution was applied on the site twice a week for 3 weeks to induce atopic dermatitis.
# C. Treatment: Mice were divided into 6 groups, and 0.5% DMSO was applied on animals as a control and 200 μl of each of 0.01 μM, 0.1 μM, and 1 μM test material was applied on animals as experimental groups for 3 weeks. 50 μl of 0.1% dexamethasone dissolved in a crude alcohol was applied on animals as a positive control at intervals of 2 days.
# D. Biopsy: After application of the test material was completed, the dorsal skin of each experimental animal was incised under heart anesthesia, some of them were rapidly frozen using liquid nitrogen and stored at −70° C. before analysis, and the remainder was fixed with 10% neutral buffered formalin for 24 hours. The fixed tissues were prepared into slides through general tissue processing, and then subjected to hematoxylin & eosin (H&E) staining to measure the thickness of the epidermal layer. In addition, toluidine blue staining was performed to observe a quantitative change of mast cells. While the stained tissues were observed by an optical microscope, the thickness of the epidermal layer and the number of mast cells were obtained using an image analyzer (Olympus DP-21).
# E. IgE level measurement: IgE concentration in blood was measured by (SHIBAYAGI, Japan) using serum collected when autopsy was performed. 50 μL of an IgE standard solution and the sample were placed in antibody-attached 96 wells and allowed to react for 2 hours, and then 50 μL of a biotin-conjugated anti-IgE antibody solution was added to each well and allowed to react for 2 hours. Thereafter, the resulting sample was reacted with a HRP-avidin solution for 1 hour and a chromogenic substrate (TBM) reagent for 20 minutes, and the reaction was stopped using a reaction stopper. Absorbance of the sample was measured at 450 nm using ELISA (Molecular devices Emax).
compound,measurement,setting,value
COc1ccc(NS(=O)(=O)c2cccc(S(=O)(=O)c3cccc(S(=O)(=O)Nc4ccc(OC)cc4)c3)c2)cc1 [IPS-07002],cytotoxicity (MTT-assay),HMC-1 cells,did not exhibit cytotoxicity
same,TSLP secretion from mast cells,[1],significantly inhibited
O=C([O-])CC(=O)NC12CC3CC(CC(C3)C1)C2.[Na+] [IPS-07003],cytotoxicity (MTT-assay),HMC-1 cells,did not exhibit cytotoxicity
same,TSLP secretion from mast cells,[1],significantly inhibited
[H]/N=C(\N/C(=N/[H])Nc1ccc(Cl)cc1)NC(C)C [IPS-07004],cytotoxicity (MTT-assay),HaCat cells,no cytotoxicity
same,caspase-1 activity in HMC-1 cells,caspase-1,inhibits
same,"enteritis inhibitory activity (ratio of enteric weight to enteric length, wt/cm)","DSS-induced animal model; 10 mg/kg oral, compared to DSS control",superior enteritis inhibitory activity
same,melena,"DSS-induced animal model; compared to the DSS-induced group, oral",significantly decreased
same,recombinant caspase-1 activity,[2],inhibits
"C[C@@H]1C[C@H]2[C@@H]3CCC4=CC(=O)C=C[C@]4(C)[C@@]3(F)[C@@H](O)C[C@]2(C)[C@@]1(O)C(=O)CO [dexamethasone, reference compound]",epidermal thickness,"[3]; DNCB group 87.1±13.0, normal 24.5±10.3",39.9±9.4 μm
same,blood IgE level,"[3]; DNCB group 790.0±151.8, no statistical significance",703.8±86.5
